Experimental data as given in US20210355086A1, “PROCESS FOR PREPARING A NOVEL PHENICOL ANTIBACTERIAL AGENT” (Zoetis Services LLC, priority 2018, published 2021).

Key:
[1] = system: M. haemolytica (strain 34195); test: M. haemolytica trans-tracheal challenge study in Holstein/Holstein cross cattle; conditions: for back transform LSmean percent lung lesions / mortality: end of study (6 days)
[2] = system: A3579 (OSU-012103-BHI) strain of Mannheimia haemolytica; test: Mannheimia haemolytica trans-tracheal challenge BRD study in dairy calves; assay type: in vivo; conditions: for percentage of lung lesion at necropsy, upper range value: control about 45%
Procedure: In one study, healthy dairy calves (N=15/group; 85-140 kg) were trans-tracheally infected -2 to -1 days with the […] (OSU-012103-BHI) strain of Mannheimia haemolytica. The challenge dose ranged from about […] to 4.9×10^8 CFU. On Day 0, BRD symptomatic animals received a single subcutaneous dose of saline (control) or test (20 or 40 mg/kg) compound. At necropsy, control animals presented with an upper range of lung lesions of about 45%. […] Therefore, a single dose of the Formula (1) compound administered subcutaneously was effective for the treatment of BRD caused by M. haemolytica in dairy calves.

[3] = system: naturally occurring BRD infection; test: Naturally occurring BRD infection treatment study in cattle; assay type: in vivo, cattle (mixed beef and/or dairy breeds); conditions: for treatment success based on respiratory symptoms and attitude: control about 20%
Procedure: In a second study, cattle (mixed beef and/or dairy breeds; 180-270 kg) were treated from a naturally occurring BRD infection. Animals (n=40/group) received a single subcutaneous dose of saline (control) or test (15 mg/kg or 20 mg/kg) compound. Overall, treatment success, based on respiratory symptoms (rate, mucopurulent nasal or ocular discharge, open mouth breathing) and attitude (alert, stimuli response time, muscle weakness, ataxia, swaying) was about 37% and 47% for the 15 mg/kg and 20 mg/kg dose, respectively. In contrast, control animal success was about 20%.

[4] = system: Gram-positive bacteria and Gram-negative bacteria; conditions: background statement; cited from earlier work
[5] = T03, positive control, dose not given, subcutaneously 4-6 hours post challenge
[6] = 40 mg/kg (T02, T05) subcutaneously 4-6 hours post challenge, saline T01 35.1%
[7] = 40 mg/kg (T02, T05) subcutaneously 4-6 hours post challenge, saline T01 53.3%

SMILES	back transform LSmean percent lung lesions [1, 5] [%]	mortality [1, 5] [%]	back transform LSmean percent lung lesions [1, 6] [%]	mortality [1, 7] [%]	percent lung lesions compared with T03 (Baytril) ([1]; T04 (20 mg/kg) and T05 (40 mg/kg))	back transform LSmean percent lung lesions ([1]; T04, 20 mg/kg subcutaneously 4-6 hours post challenge, saline T01 35.1%) [%]	mortality ([1]; T04, 20 mg/kg subcutaneously 4-6 hours post challenge, saline T01 53.3%) [%]	percentage of lung lesion at necropsy, upper range value ([2]; 20 mg/kg single subcutaneous dose on Day 0)	percentage of lung lesion at necropsy, upper range value ([2]; 40 mg/kg single subcutaneous dose on Day 0) [%]	treatment of BRD caused by M. haemolytica (conclusion) ([2]; single dose administered subcutaneously, dairy calves)	treatment success based on respiratory symptoms and attitude ([3]; 15 mg/kg single subcutaneous dose)	treatment success based on respiratory symptoms and attitude ([3]; 20 mg/kg single subcutaneous dose) [%]	treatment effect in cattle with natural BRD infections (conclusion) ([3]; single subcutaneous dose 15 or 20 mg/kg)	antibacterial activity relative to thiamphenicol [4]
CCN1CCN(c2cc3c(cc2F)c(=O)c(C(=O)O)cn3C2CC2)CC1 [Baytril, enrofloxacin, reference compound]	9.1	0	–	–	–	–	–	–	–	–	–	–	–	–
CS(=N)(=O)c1ccc(-c2ccc([C@@H](O)[C@@H](CF)NC(=O)C(F)F)cc2)cn1 (stereo partly drawn) [Formula (1) compound, 2,2-difluoro-N-((1R,2S)-3-fluoro-1-hydroxy-1-(4-(6-(S-methylsulfonimidoyl)pyridin-3-yl)phenyl)propan-2-yl)acetamide]	–	–	6.8	0	not different	13.3	0	about 12%	~8	effective	about 37%	~47	significant treatment effect	–
CS(=O)(=O)c1ccc([C@@H](O)[C@@H](CF)NC(=O)C(Cl)Cl)cc1 [Nuflor, florfenicol, reference compound]	–	–	32.1	46.7	–	–	–	–	–	–	–	–	–	up to 10 times
